US20130041005A1, “PHARMACEUTICAL COMPOSITIONS COMPRISING NEUROPILIN INHIBITORS, AND THEIR USE FOR THE PREVENTION AND/OR TREATMENT OF ANGIOGENIC DISORDERS AND CANCERS” (TRAGEX PHARMA, priority 2011, published 2013)
Entries after “also recorded” stand apart in the source; their conditions may differ.

What was measured:
HCT-29 = experiment: WST-1 proliferation assay, HCT-29; type: cell-based; details: Homo sapiens; Colon HCT-29, 72 h; read-out: Anti-proliferative activity IC50 (μM) ± SD
Text: Several cancer cell lines were used: breast cancer cells (MDA-MB-231 (ATTCC® Number HTB-26™), MDA-MB-436 (ATTCC® Number HTB-130™), MDA-MB-438, BT-474 (ATTCC® Number HTB-20™)); cervical cancer cells (HeLa (ATTCC® Number CCL-2™)); colon cancer cells (HCT-116 (ATTCC® Number CCL-247™) and HT-29 (ATTCC® Number HTB-38™)); osteosarcoma cells (U2OS (ATTCC® Number HTB-96™)); pancreas cancer cells (MIA PaCa-2 (ATTCC® Number CRL-1420™) and Panc-10.5 (ATTCC® Number CRL-2547™)); prostate cancer cells (PC-3 (ATTCC® Number CRL-1435™) and LNCaP (ATTCC® Number CRL-1740™)); brain cancer cells (U87 glioblastoma (ATTCC® Number HTB-14™) and SH-SYSY neuroblastoma (ATTCC® Number CRL-2266™)). […]
After observation of cells under the microscope, old media were removed and the adherent cells washed gently twice with PBS (Phosphate Buffer Saline, —Ca^2+, —Mg^2+, Lonza cat no: 17-512F/12). […] 50 μl of this solution were transferred in 20 μl of isotonic solution and the cells were counted by count cellular (Beckman Coulter). […]
(§1) The cell proliferation WST-1 assay is a colorimetric assay for the quantification of cell proliferation and viability, based on the enzymatic cleavage of the tetrazolium salt WST-1 added to the culture medium, to a water soluble colored formazan dye, detected by absorbance at 450 nm, by mitochondrial succinate-tetrazolium reductase in viable cells. […]

[1] = system: breast cancer cells (MDA-MB-231); experiment: Apoptosis assay (Annexin V-FITC/PI), MDA-MB-231; type: cell-based, Human; details: IC50 concentration, 72 h (FIG. 5B)
Protocol: The level of apoptosis in endothelial (HUVEC) and breast cancer cells (MDA-MB-231) was detected by Annexin V-FITC Apoptosis Detection Kit (ref 556547, BD Biosciences, France) according to the manufacturer's instructions. Briefly, HUVEC and MDA-MB-231 cells were treated separately with DMSO (control) and the compounds of the invention at the concentration corresponding to the IC50, obtained by the proliferation assay, for 72 h. After treatment, all cell including both detached and attached cells were collected, centrifugated at 14000 rpm for 5 min and the apoptotic cells were detected by staining with Annexin V-FITC and (propidium iodide) PI. The cells were resuspended in 100 μl Annexin V binding buffer (10 mM Hepes/NaOH, pH 7.4, 140 mM NaCl, […]) containing 5 μl of Annexin V-FITC and 5 μl of PI (propidium iodide). Samples were gently mixed and incubated for 2 h on ice and in the dark. Viable and apoptotic cell were detected by flow citometry (FACS Calibur Becton Dickinson, France). Apoptotic cells include both the early apoptotic portion (Annexin V-positive) and the late apoptotic portion (Annexin V- and PI-positive). Staurosporine is used as a positive control of apoptosis induction.

U2OS = experiment: WST-1 proliferation assay, U2OS; type: cell-based; details: Homo sapiens; for IC50: Osteosarcoma U2OS, 72 h, read-out: Anti-proliferative activity IC50 (μM) ± SD; for inhibition at 0.1 µM / inhibition at 0.5 µM / inhibition at 1 µM: U2OS
Text: Several cancer cell lines were used: breast cancer cells (MDA-MB-231 (ATTCC® Number HTB-26™), MDA-MB-436 (ATTCC® Number HTB-130™), MDA-MB-438, BT-474 (ATTCC® Number HTB-20™)); cervical cancer cells (HeLa (ATTCC® Number CCL-2™)); colon cancer cells (HCT-116 (ATTCC® Number CCL-247™) and HT-29 (ATTCC® Number HTB-38™)); osteosarcoma cells (U2OS (ATTCC® Number HTB-96™)); pancreas cancer cells (MIA PaCa-2 (ATTCC® Number CRL-1420™) and Panc-10.5 (ATTCC® Number CRL-2547™)); prostate cancer cells (PC-3 (ATTCC® Number CRL-1435™) and LNCaP (ATTCC® Number CRL-1740™)); brain cancer cells (U87 glioblastoma (ATTCC® Number HTB-14™) and SH-SYSY neuroblastoma (ATTCC® Number CRL-2266™)).
(§2) All the cancer cell lines were maintained in cultured in DMEM GlutaMAX™ (GIBCO Invitrogen, France, cat no 31966047) enhanced with 10% foetal bovine serum (GIBCO Invitrogen, France, cat no 10270-106) and 1% penicillin G/streptomycin (GIBCO Invitrogen, France, cat no 15140-122). Only Panc-10.5 cells were cultivated in RPMI 1640 medium (Gibco) supplemented with 2 mM L-glutamine, 1.5 g/L sodium bicarbonate, 4.5 g/L glucose, 10 mM HEPES, 1 mM sodium pyruvate, 10 Units/ml human insulin, […] (SVF): 15% (75 ml in 500 ml of medium).
Cells were grown as subconfluent monolayer and cultured in 75 cm^2 flasks at 37° C., 5% CO2 in a humidified atmosphere, and medium was changed every two days. Only cells from passages 2-6 were used for the experiments.
After observation of cells under the microscope, old media were removed and the adherent cells washed gently twice with PBS (Phosphate Buffer Saline, —Ca^2+, —Mg^2+, Lonza cat no: 17-512F/12). All cells were detached with 3 ml of trypsin/EDTA (chelator of calcium and magnesium ions) (Lonza), incubated for 5 min at 37° C., and examined using a microscope to ensure that the cells were detached and floating. Then, 3 ml TNS (Trypsin Neutralizing Solution, Lonza, France, cat no CC-5002) or of culture medium were added to inactivate the trypsin, and the cell suspension was transferred in a falcon and centrifuged for 7 min at 1400 rpm. The supernatant was removed and the cell pellet resuspended in […] of culture medium. 50 μl of this solution were transferred in 20 μl of isotonic solution and the cells were counted by count cellular (Beckman Coulter). At day 0, 200 μl of cellular suspension (3.10^3 cells/well for the HUVEC cells, breast cancer cells (MDA-MB-231 1.10^4 cells/well, MDA-MB-436 1.10^4 cells/well, MDA-MB-438 2.10^4 cells/well, BT-474 2.5.10^4 cells/well); cervical cancer cells (HeLa 5.000 cells/well); colon cancer cells (HCT-116 5.10^3 cells/well, HCT-29 1.1.10^4 cells/well); osteosarcoma cells (U2OS 8.10^3 cells/well); pancreas cancer cells (MIA PaCa-2 5.10^3 cells/well, Panc-10.5 1.5.10^4 cells/well); prostate cancer cells (PC-3 4.10^3 cells/well, LNCaP 2.10^4 cells/well); brain cancer cells (U87 5.10^3 cells/well, SH-SYSY 8.10^4 cells/well)) were then plated on 96 well plates and incubated at 37° C. in a humidified atmosphere of 5% CO2 for 24 h.
At day 1, the compounds 1 or 2 of the invention were added at increasing concentrations (0.1-10 μM) in the wells and plates were incubated at 37° C. in a humidified atmosphere of 5% CO2 for 72 h.
The cell proliferation WST-1 assay is a colorimetric assay for the quantification of cell proliferation and viability, based on the enzymatic cleavage of the tetrazolium salt WST-1 added to the culture medium, to a water soluble colored formazan dye, detected by absorbance at 450 nm, by mitochondrial succinate-tetrazolium reductase in viable cells. An augmentation in enzyme activity will then lead to an increase in the amount of formazan dye formed, which directly correlates to the number of metabolically active cells in the culture.
After an incubation period of 72 h, at day 4, were prepared the 19 ml medium with reagent WST-1 1 ml ([…]). The medium was removed from the 96 microplate and 200 μl of solution WST-1/medium were added for each well. […]

U266 = experiment: WST-1 proliferation assay, U266; type: cell-based; details: Homo sapiens, U-266; Myeloma U266; read-out: Anti-proliferative activity IC50 (μM) ± SD
Protocol: as §2
Cells were grown as subconfluent monolayer and cultured in 75 cm^2 flasks at 37° C., 5% CO2 in a humidified atmosphere, and medium was changed every two days. […]
as §1
After an incubation period of 72 h, at day 4, were prepared the 19 ml medium with reagent WST-1 1 ml ([…]). […] The cells were incubated at 37° C. in a humidified atmosphere of 5% CO2 for 1 h 30 and the absorbance at 450-655 nm was measured by Microplate Manager 5.2 (Bio-Rad).

Compound	IC50 (HCT-29) [µM]	induction of apoptosis in cancer cells [1]	IC50 (U2OS) [µM]	inhibition at 0.1 µM (U2OS) [%]	inhibition at 0.5 µM (U2OS) [%]	inhibition at 1 µM (U2OS) [%]	IC50 (U266) [µM]
O=C(NC(=S)Nc1cccc(-c2nc3ccccc3[nH]2)c1)c1ccc2c(c1)OCCO2 [Compound 2, N-[3-(1H-benzimidazol-2-yl)phenyl]-N′-(2,3-dihydro-1,4-benzodioxin-6-ylcarbonyl)thiourea]	0.1 ± 0.01	induced the apoptosis; also recorded: induction of apoptosis	1.8 ± 0.05	31	41	44	1.5 ± 0.04
Cc1ccc(-c2nc3ccccc3[nH]2)cc1NC(=S)NC(=O)c1ccc2c(c1)OCCO2 [Compound 1, N-[5-(1H-benzimidazol-2-yl)-2-methylphenyl]-N′-(2,3-dihydro-1,4-benzodioxin-6-ylcarbonyl)thiourea]	0.5 ± 0.05	induced the apoptosis; also recorded: induction of apoptosis	2.3 ± 0.04	15	29	36	2
